{"source": "patent US20240165066A1", "about": "“LYMPH-RELEASING COMPOSITIONS OF FATTY ACIDS AND USES THEREOF FOR LYMPHATIC INCORPORATION AND SYSTEMIC DISEASE TREATMENT” (Amarin Pharmaceuticals Ireland Limited, priority 2022, published 2024)", "format_in_all_cases": "cell-based", "key": {"[1]": {"system": "Human umbilical vein endothelial cells (HUVECs)", "experiment": "LC/MS proteomics of HUVECs treated with EPA or DHA and challenged with IL-6", "conditions": "for number of proteins whose expression was significantly repressed / number of proteins whose expression was significantly stimulated: compared with IL-6 alone", "procedure": "Human umbilical vein endothelial cells (HUVECs) were isolated into primary cultures from female donors by Clonetics (San Diego, California) and purchased as proliferating cells. All cell culture donors were healthy, with no pregnancy or prenatal complications. The cultured cells were incubated in 95% air/5% CO2 at 37° C. and passaged by an enzymatic (trypsin) procedure. The confluent cells (4 to 5×10^5 cells/35 mm dish) were placed with minimum essential medium containing 3 mM L-arginine and 0.1 mM BH4 [(6R)-5,6,7,8-tetrahydrobiopterin]. Before experimental use, the cells (from second or third passage) were rinsed twice with Tyrode-HEPES buffer with 1.8 mM CaCl2).\nEPA and DHA were purchased from Sigma-Aldrich (St. Louis, MO) and prepared initially in redistilled ethanol. Primary and secondary stock solutions were prepared and stored under nitrogen at −20° C.\nHUVECs were treated with vehicle, EPA, or DHA (10 μM) for 2 hours, and then challenged with IL-6 (12 ng/mL) for 24 h hours. After incubation, cells were pelleted and frozen at −80° C. until proteomic analysis was performed.\nRelative protein expression levels among the various treatments were measured using LC/MS proteomic techniques. Following protein digest, peptides are separated over a reverse phase column and then identified based on their mass.\nCell pellets were lysed using methanol/chloroform extraction. Proteins were denatured, reduced, alkylated, and trypsin digested. Samples were then prepared for Tandem Mass Tag (TMT) 10plex labeling. A bicinchoninic acid (BCA) assay was performed on each sample to quantify the total protein in each sample, which is important to confirm equal amounts of each sample are added to the multiplex sample. Each peptide in a sample was given a unique, low molecular weight (typically 126-130 Da), and then the samples were combined.\nEach multiplexed sample was then fractionated to increase the overall protein coverage using high pH reversed phase fractionation and analyzed by LC/MS using a Dionex UltiMate 3000 RSLC in tandem with a Q-Exactive/Lumos Orbitrap Mass Spectrometer. The chromatography was performed using a 2-hour gradient on a Thermo Pepmap C18 column (100 Å pore size, 3.0 μm particle size, […]) set at 50° C. Mobile phase A was water with 0.1% formic acid, and mobile phase B was acetonitrile with 0.1% formic acid.\nA bioinformatic package was applied to all the mass spectrometry intensity data known as Differential Enrichment analysis of Proteomics data (DEP) to process proteomic data (FIGS. 35-37)."}, "brain endothelial cells": {"system": "brain endothelial cells", "experiment": "IL-6 provoked-inflammation cell culture, proteomics", "conditions": "brain endothelial cells provoked with IL-6", "excerpt": "(§1) FIG. 34B presents results from a provoked-inflammation cell-culture study with proteomics outcomes, wherein endothelial cells from various tissues were exposed to the inflammatory cytokine IL-6 in the absence or presence of EPA. […] Also of interest are related increases in proteins involved in the related antioxidant ferritin in vascular endothelial cells. Finally fatty acid desaturase 1 (FADS1) encodes the Δ5-desaturase enzyme and fatty acid desaturase 2 (FADS2) encodes the […] enzyme.\n(§2) In a series of tissue culture experiments cells were provoked with IL-6 to induce an inflammatory and cellular injury response, and EPA added to determine whether it moderated proteins involved in injury responses. […] Thus, the proteomics results not only affirm the ability of EPA to promote HO-1, but also confirm the ability of EPA to inhibit […], corroborating the aforementioned ability of EtEPA to suppress the Δ5-desaturase index, for example."}, "[2]": {"system": "pulmonary endothelial cells", "experiment": "IL-6 provoked-inflammation cell culture, proteomics", "conditions": "pulmonary endothelial cells provoked with IL-6", "excerpt": "as §1, §2"}, "[3]": {"system": "vascular endothelial cells", "experiment": "IL-6 provoked-inflammation cell culture, proteomics", "conditions": "vascular endothelial cells provoked with IL-6", "excerpt": "as §1, §2"}, "[4]": {"system": "Primary human lung microvascular endothelial cells (HMVEC-Ls, PECs)", "experiment": "LC/MS proteomics of pulmonary endothelial cells exposed to air pollution particulate matter", "procedure": "Primary human lung microvascular endothelial cells (HMVEC-Ls, PECs) were purchased from Lonza (Manassas, VA). Cells were cultured in complete endothelial cell growth medium and maintained at 37° C. in a 95% air/5% CO2 humidified incubator. Cells were supplied with fresh medium every other day and propagated by an enzymatic (trypsin) procedure. Cell culture medium also contained 2% FBS to facilitate fatty acid treatment.\nEPA was purchased from Sigma-Aldrich (Saint Louis, MO) and solubilized in redistilled ethanol under nitrogen atmosphere and stored at −20° C.\nUrban air particulate matter and fine particulate matter were purchased from Sigma-Aldrich (SRM 1648a), catalog #: NIST1648a3110 and NIST27863110. The mean particle diameters were 5.85 and 2.8 μm, respectively.\nPECs were pre-treated with EPA (40 μM) for 2 hours in 2% FBS-containing medium and then challenged with urban particulate matter (50 μg/mL) for 2 hours. After 2 hours, media was washed out and HBSS buffer was added. After incubation, cells were pelleted and frozen at −80° C. until proteomic analysis was performed. Relative protein expression levels among the various treatments were measured using LC/MS proteomic techniques (FIG. 40).\nCell pellets were lysed using methanol/chloroform extraction. Proteins were then denatured, reduced, alkylated, and trypsin digested. Samples were labeled by Tandem Mass Tag (TMT) 10plex labeling to multiplex the samples and ensure that the injection, LC, and MS conditions are identical for each sample. A bicinchoninic acid (BCA) assay was performed to quantify the total protein in each sample. Each peptide in a sample was given a unique, low molecular weight (typically 126-130 Da), and then the samples were combined.\nEach multiplexed sample was then fractionated to increase the overall protein coverage using high pH reversed phase fractionation and analyzed by LC/MS using a Dionex UltiMate 3000 RSLC in tandem with a Q-Exactive/Lumos Orbitrap Mass Spectrometer.\nA ComBat function was applied to all mass spectrometry intensity data to correct for batch effects. The bioinformatic package Differential Enrichment analysis of Proteomics data (DEP) was used to process proteomic data and generate the figures."}, "[5]": {"conditions": "10 μM for 2 hours, then IL-6 (12 ng/mL) 24 h, vs IL-6 alone"}}, "data": [{"smiles": "CC/C=C\\C/C=C\\C/C=C\\C/C=C\\C/C=C\\C/C=C\\CCC(=O)O", "note": "[DHA, docosahexaenoic acid]", "values": [{"measurement": "GSR protein change", "setting": "[1]; [5]", "result": "1.2-fold increase,"}, {"measurement": "PRDX1 protein change", "setting": "[1]; [5]", "result": "1.1-fold increase,"}, {"measurement": "PRDX3 protein change", "setting": "[1]; [5]", "result": "1.1-fold increase,"}, {"measurement": "PRDX4 protein change", "setting": "[1]; [5]", "result": "1.5-fold increase"}, {"measurement": "PRDX5 protein change", "setting": "[1]; [5]", "result": "1.1-fold increase,"}, {"measurement": "PRDX6 protein change", "setting": "[1]; [5]", "result": "1.3-fold decrease"}, {"measurement": "TXN protein change", "setting": "[1]; [5]", "result": "1.2-fold increase,"}, {"measurement": "number of proteins whose expression was significantly repressed", "setting": "[1]", "result": 767, "unit": "proteins"}, {"measurement": "number of proteins whose expression was significantly stimulated", "setting": "[1]", "result": 864, "unit": "proteins"}]}, {"smiles": "CC/C=C\\C/C=C\\C/C=C\\C/C=C\\C/C=C\\CCCC(=O)O", "note": "[EPA, eicosapentaenoic acid]", "values": [{"measurement": "HO-1 protein, EPA+IL-6 vs IL-6 alone", "setting": "brain endothelial cells", "result": 1.5, "unit": "fold"}, {"measurement": "HO-1 protein, EPA+IL-6 vs IL-6 alone", "setting": "[2]", "result": 1.9, "unit": "fold"}, {"measurement": "HO-1 protein, EPA+IL-6 vs IL-6 alone", "setting": "[3]", "result": 2.2, "unit": "fold"}, {"measurement": "DDAH-1 protein change", "setting": "[1]; [5]", "result": "1.1-fold increase,"}, {"measurement": "DDAH-2 protein change", "setting": "[1]; [5]", "result": "1.1-fold increase,"}, {"measurement": "GSR protein change", "setting": "[1]; [5]", "result": "1.1-fold increase,"}, {"measurement": "PRDX1 protein change", "setting": "[1]; [5]", "result": "1.1-fold increase,"}, {"measurement": "PRDX2 protein change", "setting": "[1]; [5]", "result": "1.1-fold increase,"}, {"measurement": "PRDX5 protein change", "setting": "[1]; [5]", "result": "1.1-fold increase,"}, {"measurement": "TXN protein change", "setting": "[1]; [5]", "result": "1.2-fold increase,"}, {"measurement": "number of proteins whose expression was significantly repressed", "setting": "[1]", "result": 472, "unit": "proteins"}, {"measurement": "number of proteins whose expression was significantly stimulated", "setting": "[1]", "result": 544, "unit": "proteins"}, {"measurement": "number of proteins with significantly modulated expression", "setting": "[4]; EPA (40 μM) relative to fine PMs", "result": 205, "unit": "proteins"}, {"measurement": "number of proteins with significantly modulated expression", "setting": "[4]; EPA (40 μM) relative to urban PMs", "result": 347, "unit": "proteins"}, {"measurement": "# of Proteins Decreased Expression by Treatment, Neutrophil Degranulation Pathway (GO: 0043312)", "setting": "[4]; Fine PM vs EPA + Fine PM", "result": 11}, {"measurement": "# of Proteins Increased Expression by Treatment, Neutrophil Degranulation Pathway (GO: 0043312)", "setting": "[4]; Fine PM vs EPA + Fine PM", "result": 11}, {"measurement": "# of Proteins Decreased Expression by Treatment, Neutrophil Degranulation Pathway (GO: 0043312)", "setting": "[4]; Urban PM vs EPA + Urban PM", "result": 19}, {"measurement": "# of Proteins Increased Expression by Treatment, Neutrophil Degranulation Pathway (GO: 0043312)", "setting": "[4]; Urban PM vs EPA + Urban PM", "result": 16}, {"measurement": "number of proteins associated with neutrophil degranulation modulated by EPA treatment", "setting": "[4]; compared to fine PMs", "result": 22, "unit": "proteins"}, {"measurement": "number of proteins associated with neutrophil degranulation modulated by EPA treatment", "setting": "[4]; compared to urban PMs", "result": 35, "unit": "proteins"}]}]}
